Structures can show the parent of a compound that is named as a salt.
Target: T1, SOS1 (Homo sapiens, UniProt Q07889)
T1 sequence (Q07889 1-1333): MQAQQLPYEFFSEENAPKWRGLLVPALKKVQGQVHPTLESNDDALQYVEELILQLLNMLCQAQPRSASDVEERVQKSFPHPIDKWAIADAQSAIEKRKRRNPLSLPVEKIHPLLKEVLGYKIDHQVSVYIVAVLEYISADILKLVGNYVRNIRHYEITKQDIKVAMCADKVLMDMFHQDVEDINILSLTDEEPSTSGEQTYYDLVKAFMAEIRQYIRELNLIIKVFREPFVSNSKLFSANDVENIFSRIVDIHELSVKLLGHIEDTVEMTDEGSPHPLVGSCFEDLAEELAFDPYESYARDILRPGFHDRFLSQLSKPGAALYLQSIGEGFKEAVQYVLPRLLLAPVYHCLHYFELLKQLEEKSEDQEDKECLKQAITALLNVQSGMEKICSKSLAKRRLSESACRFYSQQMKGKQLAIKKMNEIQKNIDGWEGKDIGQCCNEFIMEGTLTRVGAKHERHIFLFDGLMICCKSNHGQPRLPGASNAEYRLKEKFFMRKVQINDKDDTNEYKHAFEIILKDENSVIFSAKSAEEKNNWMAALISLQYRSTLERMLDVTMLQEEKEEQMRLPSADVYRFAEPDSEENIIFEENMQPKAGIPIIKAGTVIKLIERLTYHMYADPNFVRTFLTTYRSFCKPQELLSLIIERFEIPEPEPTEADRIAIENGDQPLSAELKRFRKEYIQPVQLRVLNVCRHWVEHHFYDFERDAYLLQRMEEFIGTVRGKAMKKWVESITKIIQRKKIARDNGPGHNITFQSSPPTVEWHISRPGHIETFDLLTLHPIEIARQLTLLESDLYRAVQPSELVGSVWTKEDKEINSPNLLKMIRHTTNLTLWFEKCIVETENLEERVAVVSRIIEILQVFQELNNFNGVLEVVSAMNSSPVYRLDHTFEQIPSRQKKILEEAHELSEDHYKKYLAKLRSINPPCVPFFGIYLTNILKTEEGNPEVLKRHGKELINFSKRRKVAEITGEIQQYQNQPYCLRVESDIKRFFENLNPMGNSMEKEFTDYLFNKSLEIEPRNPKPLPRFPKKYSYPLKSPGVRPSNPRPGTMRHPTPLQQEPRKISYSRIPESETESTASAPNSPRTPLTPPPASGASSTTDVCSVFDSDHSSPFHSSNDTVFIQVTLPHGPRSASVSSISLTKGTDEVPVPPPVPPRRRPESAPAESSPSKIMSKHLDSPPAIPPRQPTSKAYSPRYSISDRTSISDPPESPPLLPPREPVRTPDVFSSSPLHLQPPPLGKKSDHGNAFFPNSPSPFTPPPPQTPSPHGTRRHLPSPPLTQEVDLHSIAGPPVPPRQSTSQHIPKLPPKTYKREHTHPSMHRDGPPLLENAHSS
Assay: biochemical

Row | Compound | IC50 [µM]
1 | C[C@@H](Nc1nnc(N2CCC(CO)C2)c2cc(=O)n(C3(C)CC3)cc12)c1cccc(C(F)(F)CO)c1 (stereo partly drawn) [Example 228, 4-(((R)-1-(3-(1,1-difluoro-2-hydroxyethyl)phenyl)ethyl)amino)-1-(3-(hydroxymethyl)pyrrolidin-1-yl)-6-(1-methylcyclopropyl) pyrido[3,4-d]pyridazin-7(6H)-one] | 0.0044
2 | C[C@@H](Nc1nnc(N2CCC3(CCCO3)CC2)c2cc(=O)n(C3(C)CC3)cc12)c1cccc(C(F)F)c1F [Example 199, (R)-4-((1-(3-(difluoromethyl)-2-fluorophenyl)ethyl)amino)-6-(1-methylcyclopropyl)-1-(1-oxa-8-azaspiro[4.5]decan-8-yl)pyrido[3,4-d]pyridazin-7(6H)-one] | 0.0125
3 | C[C@@H](Nc1nnc(-n2cncn2)c2cc(=O)n(C3CC3)cc12)c1cccc(C(F)F)c1F [Example 1, (R)-6-cyclopropyl-4-((1-(3-(difluoromethyl)-2-fluorophenyl)ethyl)amino)-1-(1H-1,2,4-triazol-1-yl) pyrido[3,4-d]pyridazin-7(6H)-one] | 0.0135
4 | C[C@@H](Nc1nnc(N2CCN(C)CC2)c2cc(=O)n(C3CCOC3)cc12)c1cccc(C(F)F)c1F (stereo partly drawn) [Example 127, 4-(((R)-1-(3-(difluoromethyl)-2-fluorophenyl)ethyl)amino)-1-(4-methylpiperazin-1-yl)-6-(tetrahydrofuran-3-yl)pyrido[3,4-d]pyridazin-7(6H)-one] | 0.0067
5 | C[C@@H](Nc1nnc(N2CCC(F)(F)CC2)c2cc(=O)n(C3(C)CC3)cc12)c1cccc(C(F)F)c1F [Example 23, (R)-4-((1-(3-(difluoromethyl)-2-fluorophenyl)ethyl)amino)-1-(4,4-difluoropiperidin-1-yl)-6-(1-methylcyclopropyl) pyrido[3,4-d]pyridazin-7(6H)-one] | 0.0224
6 | C[C@@H](Nc1nnc(N2CCCCC2)c2cc(=O)n(C3(C)CC3)cc12)c1cccc(C(F)F)c1F [Example 6, (R)-4-((1-(3-(difluoromethyl)-2-fluorophenyl)ethyl)amino)-6-(1-methylcyclopropyl)-1-(piperidin-1-yl)pyrido[3,4-d]pyridazin-7(6H)-one] | 0.0148
7 | C[C@@H](Nc1nnc(N2CC3CN(C)CC3C2)c2cc(=O)n(C3(C)CC3)cc12)c1cccc(C(F)F)c1F (stereo partly drawn) [Example 206, 4-(((R)-1-(3-(difluoromethyl)-2-fluorophenyl)ethyl)amino)-6-(1-methylcyclopropyl)-1-(5-methylhexahydropyrrolo[3,4-c]pyrrol-2(1H)-yl)pyrido[3,4-d]pyridazin-7(6H)-one] | 0.0049
8 | Cc1c(C#N)cccc1[C@@H](C)Nc1nnc(N2CC(F)(F)C2)c2cc(=O)n(C3CC3)cc12 [Example 41, (R)-3-(1-((6-cyclopropyl-1-(3,3-difluoroazetidin-1-yl)-7-oxo-6,7-dihydropyrido[3,4-d]pyridazin-4-yl)amino)ethyl)-2-methylbenzonitrile] | 0.0579
9 | C[C@@H](Nc1nnc(N2CCN(C)CC2)c2cc(=O)n(N3CC4CCCC4C3)cc12)c1cccc(C(F)F)c1F (stereo partly drawn) [Example 136, 4-(((R)-1-(3-(difluoromethyl)-2-fluorophenyl)ethyl)amino)-6-(hexahydrocyclopenta[c]pyrrol-2(1H)-yl)-1-(4-methylpiperazin-1-yl)pyrido[3,4-d]pyridazin-7(6H)-one formate] | 0.0062
10 | C[C@@H](Nc1nnc(N2CCN(C3CCCC3)CC2)c2cc(=O)n(N3CC4CCCC4C3)cc12)c1cccc(C(F)F)c1F (stereo partly drawn) [Example 140, 4-(((R)-1-(3-(difluoromethyl)-2-fluorophenyl)ethyl)amino)-6-(hexahydrocyclopenta[c]pyrrol-2(1H)-yl)-1-(4-cyclopentylpiperazin-1-yl)-pyrido[3,4-d]pyridazin-7(6H)-one] | 0.0085
11 | C[C@@H](Nc1nnc(N2CCN3CCCCC3C2)c2cc(=O)n(C3(C)CC3)cc12)c1cccc(C(F)F)c1F (stereo partly drawn) [Example 203, 4-(((R)-1-(3-(difluoromethyl)-2-fluorophenyl)ethyl)amino)-6-(1-methylcyclopropyl)-1-(octahydro-2H-pyrido[1,2-a]pyrazin-2-yl)pyrido[3,4-d]pyridazin-7(6H)-one] | 0.0038
12 | Cc1c([C@@H](C)Nc2nnc(N3CC(F)(F)C3)c3cc(=O)n(C4(C)CC4)cc23)cccc1C(F)(F)F [Example 66, (R)-1-(3,3-difluoroazetidin-1-yl)-4-((1-(2-methyl-3-(trifluoromethyl)phenyl)ethyl)amino)-6-(1-methylcyclopropyl) pyrido[3,4-d]pyridazin-7(6H)-one] | 0.0309
13 | C[C@@H](Nc1nnc(-n2ccnc2)c2cc(=O)n(C3(C)CC3)cc12)c1cccc(C(F)F)c1F [Example 34, (R)-4-((1-(3-(difluoromethyl)-2-fluorophenyl)ethyl)amino)-1-(1H-imidazol-1-yl)-6-(1-methylcyclopropyl) pyrido[3,4-d]pyridazin-7(6H)-one] | 0.0144
14 | Cc1c(C#N)cccc1[C@@H](C)Nc1nnc(N2CCN(C3CC3)CC2)c2cc(=O)n(C3CC3)cc12 [Example 99, (R)-3-(1-((6-cyclopropyl-1-(4-cyclopropylpiperazin-1-yl)-7-oxo-6,7-dihydropyrido[3,4-d]pyridazin-4-yl)amino)ethyl)-2-methylbenzonitrile] | 0.0113
15 | Cc1c(C(F)F)cccc1[C@@H](C)Nc1nnc(N2CCN(C3CC3)CC2)c2cc(=O)n(C3CC3)cc12 [Example 212, (R)-6-cyclopropyl-1-(4-cyclopropylpiperazin-1-yl)-4-((1-(3-(difluoromethyl)-2-methylphenyl)ethyl)amino)pyrido[3,4-d]pyridazin-7(6H)-one] | 0.0119
16 | Cc1cc(N)cc([C@@H](C)Nc2nnc(N3CCN(C(C)C)CC3)c3cc(=O)n(C4CC4)cc23)c1F [Example 147, (R)-4-((1-(5-amino-2-fluoro-3-methylphenyl)ethyl)amino)-6-cyclopropyl-1-(4-isopropylpiperazin-1-yl)pyrido[3,4-d]pyridazin-7(6H)-one formate] | 0.0063
17 | Cc1c(C#N)cccc1[C@@H](C)Nc1nnc(N2CCC(F)(F)CC2)c2cc(=O)n(C3(C)CC3)cc12 [Example 47, (R)-3-(1-((1-(4,4-difluoropiperidin-1-yl)-6-(1-methylcyclopropyl)-7-oxo-6,7-dihydropyrido[3,4-d]pyridazin-4-yl)amino)ethyl)-2-methylbenzonitrile] | 0.0662
18 | C[C@@H](Nc1nnc(N2CCN(C3CC3)CC2)c2cc(=O)n(C3(C)CC3)cc12)c1cccc(C(F)(F)F)c1 [Example 181, (R)-1-(4-cyclopropylpiperazin-1-yl)-6-(1-methylcyclopropyl)-4-((1-(3-(trifluoromethyl)phenyl)ethyl)amino)pyr ido[3,4-d]pyridazin-7(6H)-one formate] | 0.0078
19 | C[C@@H](Nc1nnc(N2CCCC2)c2cc(=O)n(C3CC3)cc12)c1cccc(C(F)F)c1F [Example 4, (R)-6-cyclopropyl-4-((1-(3-(difluoromethyl)-2-fluorophenyl)ethyl)amino)-1-(pyrrolidin-1-yl) pyrido[3,4-d]pyridazin-7(6H)-one] | 0.0049
20 | C[C@@H](Nc1nnc(N2CCN(C)C(=O)C2)c2cc(=O)n(C3(C)CC3)cc12)c1cccc(C(F)(F)F)c1F [Example 174, (R)-4-((1-(2-fluoro-3-(trifluoromethyl)phenyl)ethyl)amino)-1-(4-methyl-3-oxopiperazin-1-yl)-6-(1-methylcyclopropyl) pyrido[3,4-d]pyridazin-7(6H)-one] | 0.0202
21 | C[C@@H](Nc1nnc(N2CCN(C)CC2)c2cc(=O)n(C3(C)CC3)cc12)c1cccc2c1CCC2(F)F [Example 208, (R)-4-((1-(1,1-difluoro-2,3-dihydro-1H-inden-4-yl)ethyl)amino)-6-(1-methylcyclopropyl)-1-(4-methylpiperazin-1-yl)pyrido[3,4-d]pyridazin-7(6H)-one] | 0.0045
22 | CCN(CC)c1nnc(N[C@H](C)c2cccc(C#N)c2C)c2cn(C3(C)CC3)c(=O)cc12 [Example 71, (R)-3-(1-((1-(diethylamino)-6-(1-methylcyclopropyl)-7-oxo-6,7-dihydropyrido[3,4-d]pyridazin-4-yl)amino)ethyl)-2-methylbenzonitrile] | 0.0308

Reference: patent publication EP4722213A1, “NITROGEN-CONTAINING FUNCTIONAL GROUP-SUBSTITUTED PYRIDAZINOPYRIDONE DERIVATIVE AND USE THEREOF” (Sichuan Huiyu Pharmaceutical Co., Ltd., priority 2023, dated 2024)
